Measured values taken from US9433601B2, “Chewing gum compositions comprising cannabinoids” (Stichting Sanammad, priority 2008, dated 2016).

Assay: Degradation of THC during preparation of the chewing gum (extraction and HPLC)
Type: physicochemical
Conditions: gum base heated till 90° C.; main breakdown product dihydrocannabinol
Description: Samples were prepared by putting one gum in a 10.0 ml glass laboratory tube. 5.00 ml ethanol was added and the tube was shaken 3 times with a 5 minute interval. Then 5.00 ml mobile phase (acetonitrile: H2O+0.1% formic acid) was added. The tube was shaken and the gum was mashed with a Pasteur pipette. Then the solution was shaken again and the sample was filtered through a 0.2 micrometer filter. This is the impurity solution. An assay solution was prepared by diluting the impurity solution 100 times with mobile phase. The calculated amount of THC is based upon comparison with a reference solution with an exactly known amount of THC. Purities are calculated as peak area/sum of area's*100%. Impurities present in the placebo are not considered and known impurities are corrected with known response factors.

Compound: CCCCCc1cc(O)c2c(c1)OC(C)(C)[C@@H]1CCC(C)=C[C@@H]21 [THC, (−)-(6aR,10aR)-6,6,9-trimethyl-3-pentyl-6a,7,8,10a-tetrahydro-6H-benzo[c]chromen-1-ol]
- degradation of THC during the preparation of the chewing gum: only a slight degradation
